Broadly, the pEC50 is −log10 of the EC50, conventionally taken in molar units. Usually pKi stands for −log10 of the Ki, conventionally taken in molar units. Lower therefore signals a large Ki. Broadly, the Ki is a measure of affinity in units of concentration, obtained from inhibition or displacement.

This note sets out measurements from ChEMBL document CHEMBL3621167, “Therapeutic Potential of 5-HT6 Receptor Agonists” (J Med Chem, 2015).

pEC50, pKi: −log10 of the molar value.

The target of experiment [1] is 5-hydroxytryptamine receptor 6 (Homo sapiens, UniProt P50406). The experiment in a line: Agonist activity at 5-HT6 receptor (unknown origin).
5-hydroxytryptamine receptor 6 (Homo sapiens, UniProt P50406), sequence (P50406 whole entry): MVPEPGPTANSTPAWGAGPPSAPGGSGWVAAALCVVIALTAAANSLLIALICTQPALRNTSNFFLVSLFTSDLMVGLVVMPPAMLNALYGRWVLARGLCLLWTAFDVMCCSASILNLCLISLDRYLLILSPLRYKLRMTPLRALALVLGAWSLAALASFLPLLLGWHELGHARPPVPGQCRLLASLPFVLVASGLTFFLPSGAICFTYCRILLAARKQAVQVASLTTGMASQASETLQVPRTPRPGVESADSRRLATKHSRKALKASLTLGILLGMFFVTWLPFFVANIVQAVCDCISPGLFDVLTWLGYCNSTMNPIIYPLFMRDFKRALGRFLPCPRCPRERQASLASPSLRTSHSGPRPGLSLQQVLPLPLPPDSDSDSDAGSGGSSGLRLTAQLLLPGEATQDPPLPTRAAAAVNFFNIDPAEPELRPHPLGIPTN
Experiment [2] deals with 5-hydroxytryptamine receptor 6 (Rattus norvegicus, UniProt P31388). Description: Displacement of [3H] lysergic acid diethylamide from rat 5-HT6 receptor transfected in HEK293 cells after 60 mins by scintillation counter. Format: cell-based. Background: Loss of bound radioactivity is the signal in a displacement assay; it reports binding, not function.
5-hydroxytryptamine receptor 6 (Rattus norvegicus, UniProt P31388), sequence (P31388 whole entry): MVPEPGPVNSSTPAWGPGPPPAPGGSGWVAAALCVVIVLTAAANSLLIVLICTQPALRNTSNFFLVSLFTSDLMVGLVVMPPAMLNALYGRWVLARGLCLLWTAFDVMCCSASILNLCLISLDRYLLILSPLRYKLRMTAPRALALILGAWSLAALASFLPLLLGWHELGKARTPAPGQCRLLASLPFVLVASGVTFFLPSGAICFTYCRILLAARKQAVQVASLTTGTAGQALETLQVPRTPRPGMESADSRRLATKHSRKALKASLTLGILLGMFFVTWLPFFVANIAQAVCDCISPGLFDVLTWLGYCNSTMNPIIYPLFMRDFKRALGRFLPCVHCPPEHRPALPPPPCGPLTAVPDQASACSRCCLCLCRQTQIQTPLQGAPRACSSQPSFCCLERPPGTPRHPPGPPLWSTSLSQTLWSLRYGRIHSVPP
The nature of experiment [3]: Selectivity ratio of Ki for 5-HT2B receptor (unknown origin) to Ki for rat 5-HT6 receptor.
Experiment [4] concerns the target 5-hydroxytryptamine receptor 2B (Homo sapiens, UniProt P41595). Description: Binding affinity to 5-HT2B receptor (unknown origin).
The nature of experiment [5]: Selectivity ratio of Ki for 5-HT7 receptor (unknown origin) to Ki for rat 5-HT6 receptor.
The target in experiment [6] is 5-hydroxytryptamine receptor 7 (Homo sapiens, UniProt P34969). The experiment in a line: Binding affinity to 5-HT7 receptor (unknown origin).
5-hydroxytryptamine receptor 7, sequence (P34969 whole entry): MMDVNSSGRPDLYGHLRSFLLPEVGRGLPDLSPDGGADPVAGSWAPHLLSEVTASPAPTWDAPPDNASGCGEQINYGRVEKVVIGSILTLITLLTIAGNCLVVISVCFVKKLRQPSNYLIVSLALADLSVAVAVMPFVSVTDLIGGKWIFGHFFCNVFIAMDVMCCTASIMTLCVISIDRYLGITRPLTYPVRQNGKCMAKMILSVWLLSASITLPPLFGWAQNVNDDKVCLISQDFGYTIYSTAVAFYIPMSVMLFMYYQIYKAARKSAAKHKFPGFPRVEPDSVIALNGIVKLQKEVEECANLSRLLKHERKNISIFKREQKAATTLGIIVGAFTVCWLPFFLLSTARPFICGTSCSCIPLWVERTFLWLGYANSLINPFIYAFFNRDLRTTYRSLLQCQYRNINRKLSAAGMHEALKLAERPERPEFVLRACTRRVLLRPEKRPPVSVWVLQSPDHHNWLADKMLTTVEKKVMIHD
The target of experiment [7] is T1, Adrenergic receptor alpha-1 (Rattus norvegicus, UniProt P15823+P23944+P43140).
T1 sequence (P15823 whole entry): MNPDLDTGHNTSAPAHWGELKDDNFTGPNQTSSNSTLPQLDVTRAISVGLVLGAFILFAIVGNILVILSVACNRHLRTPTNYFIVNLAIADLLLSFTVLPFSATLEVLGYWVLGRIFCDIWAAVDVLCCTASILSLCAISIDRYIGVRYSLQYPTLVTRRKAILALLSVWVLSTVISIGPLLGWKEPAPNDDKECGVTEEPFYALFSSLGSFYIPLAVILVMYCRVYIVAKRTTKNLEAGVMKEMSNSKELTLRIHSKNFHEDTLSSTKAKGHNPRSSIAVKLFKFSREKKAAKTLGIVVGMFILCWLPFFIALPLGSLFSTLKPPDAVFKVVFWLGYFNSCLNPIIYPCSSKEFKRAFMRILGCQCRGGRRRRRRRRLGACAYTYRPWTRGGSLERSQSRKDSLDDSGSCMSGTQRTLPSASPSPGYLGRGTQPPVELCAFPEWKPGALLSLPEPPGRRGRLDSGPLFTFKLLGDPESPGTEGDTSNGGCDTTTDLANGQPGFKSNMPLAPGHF
T1 sequence (P23944 whole entry): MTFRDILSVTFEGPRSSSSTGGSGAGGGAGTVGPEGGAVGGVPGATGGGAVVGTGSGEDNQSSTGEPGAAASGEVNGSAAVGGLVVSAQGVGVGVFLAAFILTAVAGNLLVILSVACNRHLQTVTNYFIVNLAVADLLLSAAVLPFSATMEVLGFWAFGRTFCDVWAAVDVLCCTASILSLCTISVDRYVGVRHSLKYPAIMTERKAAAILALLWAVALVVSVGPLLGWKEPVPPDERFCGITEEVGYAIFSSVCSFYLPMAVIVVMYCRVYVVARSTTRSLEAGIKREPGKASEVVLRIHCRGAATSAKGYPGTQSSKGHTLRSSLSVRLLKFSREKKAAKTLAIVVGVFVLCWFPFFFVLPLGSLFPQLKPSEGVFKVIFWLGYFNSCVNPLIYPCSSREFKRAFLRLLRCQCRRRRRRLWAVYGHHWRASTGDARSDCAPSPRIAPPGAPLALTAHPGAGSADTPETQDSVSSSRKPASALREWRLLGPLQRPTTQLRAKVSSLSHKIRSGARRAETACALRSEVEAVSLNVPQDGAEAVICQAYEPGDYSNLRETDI
T1 sequence (P43140 whole entry): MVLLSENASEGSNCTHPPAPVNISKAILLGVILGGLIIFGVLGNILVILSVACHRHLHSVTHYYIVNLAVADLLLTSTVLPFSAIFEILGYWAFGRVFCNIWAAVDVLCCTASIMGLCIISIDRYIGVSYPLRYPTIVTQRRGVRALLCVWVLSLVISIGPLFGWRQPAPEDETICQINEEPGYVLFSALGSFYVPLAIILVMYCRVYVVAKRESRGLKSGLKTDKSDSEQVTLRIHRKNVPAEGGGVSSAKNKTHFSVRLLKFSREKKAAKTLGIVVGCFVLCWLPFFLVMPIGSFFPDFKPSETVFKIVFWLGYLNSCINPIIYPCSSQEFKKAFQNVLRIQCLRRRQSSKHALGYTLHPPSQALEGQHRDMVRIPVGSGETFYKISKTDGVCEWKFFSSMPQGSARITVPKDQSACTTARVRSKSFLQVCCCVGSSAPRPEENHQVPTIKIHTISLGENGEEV
Description: Binding affinity to rat alpha1 adrenergic receptor.

In experiment [8] the target is T2, Adrenergic receptor alpha-2 (Homo sapiens, UniProt P08913+P18825+P18089).
T2 sequence (P08913 whole entry): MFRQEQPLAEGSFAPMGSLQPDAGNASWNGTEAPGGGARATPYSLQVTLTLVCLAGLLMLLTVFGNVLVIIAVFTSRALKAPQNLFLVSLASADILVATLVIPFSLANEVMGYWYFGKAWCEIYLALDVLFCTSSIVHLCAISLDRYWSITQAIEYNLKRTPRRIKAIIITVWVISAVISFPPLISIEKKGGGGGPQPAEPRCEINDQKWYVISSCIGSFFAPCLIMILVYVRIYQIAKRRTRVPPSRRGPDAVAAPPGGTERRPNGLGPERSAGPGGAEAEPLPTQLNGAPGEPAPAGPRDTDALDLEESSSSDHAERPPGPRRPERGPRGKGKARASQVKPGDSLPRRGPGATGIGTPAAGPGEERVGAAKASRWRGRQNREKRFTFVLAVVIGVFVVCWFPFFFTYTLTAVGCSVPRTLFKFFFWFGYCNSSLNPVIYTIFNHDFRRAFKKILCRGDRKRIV
T2 sequence (P18825 whole entry): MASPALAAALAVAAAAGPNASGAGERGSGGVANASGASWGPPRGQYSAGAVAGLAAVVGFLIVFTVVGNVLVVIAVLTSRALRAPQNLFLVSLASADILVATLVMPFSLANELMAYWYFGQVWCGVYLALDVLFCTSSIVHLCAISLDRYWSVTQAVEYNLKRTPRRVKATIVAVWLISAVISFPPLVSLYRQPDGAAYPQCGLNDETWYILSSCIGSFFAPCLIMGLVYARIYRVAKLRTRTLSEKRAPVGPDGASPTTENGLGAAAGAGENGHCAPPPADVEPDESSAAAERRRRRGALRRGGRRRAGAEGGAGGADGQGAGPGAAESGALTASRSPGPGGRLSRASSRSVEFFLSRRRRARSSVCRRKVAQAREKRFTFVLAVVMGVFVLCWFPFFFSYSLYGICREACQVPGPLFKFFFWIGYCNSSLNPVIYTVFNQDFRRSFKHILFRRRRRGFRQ
T2 sequence (P18089 whole entry): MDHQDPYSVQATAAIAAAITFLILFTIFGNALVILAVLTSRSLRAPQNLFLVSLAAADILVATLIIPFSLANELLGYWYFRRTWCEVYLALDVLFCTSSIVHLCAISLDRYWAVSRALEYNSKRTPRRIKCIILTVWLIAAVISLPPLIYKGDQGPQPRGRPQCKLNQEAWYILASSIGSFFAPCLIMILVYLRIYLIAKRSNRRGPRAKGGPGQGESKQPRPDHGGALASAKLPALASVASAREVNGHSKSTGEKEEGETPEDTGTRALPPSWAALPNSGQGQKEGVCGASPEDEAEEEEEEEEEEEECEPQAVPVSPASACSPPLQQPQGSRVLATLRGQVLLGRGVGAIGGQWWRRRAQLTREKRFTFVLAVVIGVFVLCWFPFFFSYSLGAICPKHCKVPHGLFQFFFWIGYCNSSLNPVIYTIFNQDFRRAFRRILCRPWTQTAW
Description: Binding affinity to human recombinant alpha2 adrenergic receptor. Format: protein assay.

In experiment [9] the target is T3, Adrenergic receptor alpha-2 (Rattus norvegicus, UniProt P22086+P19328+P22909).
T3 sequence (P22086 whole entry): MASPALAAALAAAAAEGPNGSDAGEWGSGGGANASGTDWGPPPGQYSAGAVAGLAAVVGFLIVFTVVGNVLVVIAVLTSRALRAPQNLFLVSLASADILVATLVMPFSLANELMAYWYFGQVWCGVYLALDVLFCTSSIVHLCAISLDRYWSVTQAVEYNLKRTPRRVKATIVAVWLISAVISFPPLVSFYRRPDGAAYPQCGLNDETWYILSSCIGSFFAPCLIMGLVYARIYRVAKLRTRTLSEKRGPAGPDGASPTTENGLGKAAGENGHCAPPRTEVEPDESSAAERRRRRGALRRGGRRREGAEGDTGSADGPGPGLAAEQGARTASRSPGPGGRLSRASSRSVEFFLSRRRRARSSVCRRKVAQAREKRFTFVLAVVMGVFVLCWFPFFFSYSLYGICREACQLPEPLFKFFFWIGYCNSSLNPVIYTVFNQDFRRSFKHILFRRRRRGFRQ
T3 sequence (P19328 whole entry): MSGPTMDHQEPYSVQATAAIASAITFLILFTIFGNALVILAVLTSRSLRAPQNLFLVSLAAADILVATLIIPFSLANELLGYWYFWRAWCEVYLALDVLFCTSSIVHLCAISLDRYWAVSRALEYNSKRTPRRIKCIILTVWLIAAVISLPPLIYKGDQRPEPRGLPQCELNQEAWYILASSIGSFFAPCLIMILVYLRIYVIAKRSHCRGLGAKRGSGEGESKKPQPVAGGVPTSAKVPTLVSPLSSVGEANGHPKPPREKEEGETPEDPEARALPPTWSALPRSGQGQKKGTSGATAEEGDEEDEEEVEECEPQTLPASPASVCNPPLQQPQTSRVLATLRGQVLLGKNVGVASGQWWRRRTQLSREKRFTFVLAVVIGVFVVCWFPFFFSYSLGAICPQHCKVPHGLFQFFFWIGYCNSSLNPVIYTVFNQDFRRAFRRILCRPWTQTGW
T3 sequence (P22909 whole entry): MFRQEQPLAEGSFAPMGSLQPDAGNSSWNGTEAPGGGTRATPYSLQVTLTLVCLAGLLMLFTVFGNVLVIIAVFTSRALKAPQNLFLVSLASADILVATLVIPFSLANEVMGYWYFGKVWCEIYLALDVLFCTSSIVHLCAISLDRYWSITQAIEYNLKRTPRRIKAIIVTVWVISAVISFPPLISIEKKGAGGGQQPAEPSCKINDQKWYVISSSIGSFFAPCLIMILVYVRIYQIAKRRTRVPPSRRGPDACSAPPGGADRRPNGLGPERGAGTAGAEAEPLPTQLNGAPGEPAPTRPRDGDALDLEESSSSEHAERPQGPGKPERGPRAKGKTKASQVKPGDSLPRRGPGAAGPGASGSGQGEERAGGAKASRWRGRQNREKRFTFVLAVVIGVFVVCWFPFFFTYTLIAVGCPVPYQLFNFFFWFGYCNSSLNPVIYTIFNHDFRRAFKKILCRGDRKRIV
The experiment in a line: Binding affinity to rat alpha2 adrenergic receptor.

Experiment [10] is filed under the species Homo sapiens. The experiment in a line: Selectivity ratio of Ki for human 5-HT1A receptor to Ki for human 5-HT6 receptor.
For experiment [11], the species on record is Homo sapiens. The experiment in a line: Selectivity ratio of Ki for human 5-HT1D receptor to Ki for human 5-HT6 receptor.
The species entered for experiment [12] is Homo sapiens. The experiment in a line: Selectivity ratio of Ki for human 5-HT7 receptor to Ki for human 5-HT6 receptor.
Experiment [13] is filed under the species Homo sapiens. The experiment in a line: Selectivity ratio of Ki for human 5-HT1B receptor to Ki for human 5-HT6 receptor.
Experiment [14] is filed under the species Homo sapiens. The experiment in a line: Selectivity ratio of Ki for human 5-HT1F receptor to Ki for human 5-HT6 receptor.
The species entered for experiment [15] is Homo sapiens. Description: Selectivity ratio of Ki for human 5-HT5A receptor to Ki for human 5-HT6 receptor.

5-hydroxytryptamine receptor 2B, sequence (P41595 whole entry): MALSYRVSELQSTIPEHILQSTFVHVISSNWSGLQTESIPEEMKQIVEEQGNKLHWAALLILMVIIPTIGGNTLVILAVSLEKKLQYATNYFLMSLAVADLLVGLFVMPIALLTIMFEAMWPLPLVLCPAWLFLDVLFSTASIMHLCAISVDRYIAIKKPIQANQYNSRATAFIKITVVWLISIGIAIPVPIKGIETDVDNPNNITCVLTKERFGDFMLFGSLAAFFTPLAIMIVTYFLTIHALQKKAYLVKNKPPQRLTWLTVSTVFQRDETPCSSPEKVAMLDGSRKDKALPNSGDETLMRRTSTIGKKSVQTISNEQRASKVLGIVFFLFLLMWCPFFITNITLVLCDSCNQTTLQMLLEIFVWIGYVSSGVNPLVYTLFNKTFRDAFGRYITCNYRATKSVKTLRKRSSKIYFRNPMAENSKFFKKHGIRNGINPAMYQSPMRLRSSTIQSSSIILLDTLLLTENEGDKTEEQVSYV

Turning to `Cc1[nH]c2ccc(Cl)cc2c1CCN(C)C`, the pEC50 in [1] is 7.35. Besides, the negative logarithm of the Ki (pKi) in [2] was 7.54; in experiment [4] it was 6.61; in experiment [6], 6.54. Further, the Ratio Ki in experiment [3] stood at 8; in experiment [5] it was 10. For the same compound, the inhibitory constant (Ki) in experiment [7], in experiment [8] and in [9] was 300 nM throughout.
For the compound `CN(C)CCc1cn(S(=O)(=O)c2ccccc2)c2ccccc12`, the Ratio Ki in the experiment listed under Homo sapiens [10], in the experiment filed under Homo sapiens [11], in the experiment listed under Homo sapiens [12], in the experiment filed under Homo sapiens [13], in the experiment filed under Homo sapiens [14] and in the experiment filed under Homo sapiens [15] was over 100 each time.
